# pIC50: −log10 of the molar value.
# Key:
# NCI-H146 cells = assay: NCI-H146 cell proliferation assay (CellTiter-Glo); type: cell-based; conditions: Homo sapiens, 72 h treatment, read-out: H146 CTG IC50
# Procedure: Cell proliferation was measured using the CellTiter-Glo® Luminescent Cell Viability Assay. The assay involved the addition of a single reagent (CellTiter-Glo® Reagent) directly to cells cultured in serum-supplemented medium. RS4;11 (ATCC, CRL-1873) cells were cultured according to ATCC recommendations and were seeded at 50,000 cells per well. NCI-H1963 cells (ATCC CRL-5982) were cultured according to ATCC recommendations and seeded at 12,000 cells per well. NCI-H146 (ATCC, HTB-173) cells were cultured according to ATCC recommendations and were seeded at 20,000 cells per well.
# Each compound evaluated was prepared as a DMSO stock solution (10 mM). Compounds were tested in duplicate on each plate, with a 10-point serial dilution curve (1:3 dilution). Compound treatment (1.0 μL for RS4;11 and NCI-H1963, 10 μL for NCI-H146) was added from the compound dilution plate to the cell plate. The highest compound concentration was 10 μM (final), with a 0.1% final DMSO concentration. Plates were then incubated at 37° C., 5% CO2. After 48 h of compound treatment for RS4;11 or 72 h for NCI-H-1963 and NCI-H-146, cell plates were equilibrated at rt for approximately 30 mins. An equi-volume amount of CellTiter-G)® Reagent (40 (L for […] and NC-H1963, 100 μL for NCI-H-146)) was added to each well. Plates were mixed for 2 mins on an orbital shaker to induce cell lysis and then incubated at RT for 10 mins to stabilize the luminescent signal. Luminescence was recorded using a Envision or SpectraMax M5e plate reader according to CellTiter-Glo protocol. IC50 of each compound was calculated using GraphPad Prism by nonlinear regression analysis.
# Bcl-XL = target: T1, Bcl-XL (Homo sapiens, UniProt Q07817); assay: Bcl-2/Bcl-XL HTRF assay; type: binding; conditions: 3 nM Bcl-XL, 40 nM FAM-Bad peptide
# T1 construct: host or cells: T7 phage in E. coli host derived from BL21
# Bcl-2 = Bcl-2 (Homo sapiens, UniProt P10415); assay: Bcl-2/Bcl-XL HTRF assay
# [1] = multiple oral administration under fed conditions; cited from earlier work
# [2] = Phase I/II clinical trials, chronic lymphocytic leukemia; cited from earlier work
# T1 sequence (Q07817 whole entry): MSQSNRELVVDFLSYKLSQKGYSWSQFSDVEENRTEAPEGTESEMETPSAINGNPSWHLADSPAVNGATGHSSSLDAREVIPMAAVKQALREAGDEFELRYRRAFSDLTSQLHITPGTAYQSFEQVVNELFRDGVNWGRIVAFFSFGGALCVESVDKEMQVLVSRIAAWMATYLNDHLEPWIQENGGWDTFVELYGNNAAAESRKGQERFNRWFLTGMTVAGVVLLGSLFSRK
# Sequence of Bcl-2 (P10415 whole entry): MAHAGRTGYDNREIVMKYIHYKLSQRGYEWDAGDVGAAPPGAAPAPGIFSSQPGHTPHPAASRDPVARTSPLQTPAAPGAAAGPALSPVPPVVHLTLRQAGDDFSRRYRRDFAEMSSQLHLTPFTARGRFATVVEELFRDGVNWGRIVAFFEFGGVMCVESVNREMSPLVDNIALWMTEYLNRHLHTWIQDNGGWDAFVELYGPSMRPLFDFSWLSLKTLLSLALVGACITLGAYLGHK
Structure (SMILES),pIC50 (NCI-H146 cells),pIC50 (Bcl-XL),pIC50 (Bcl-2),also measured
"CC1(C)CCC(CN2CCN(c3ccc(C(=O)NS(=O)(=O)c4ccc(N[C@H](CCN5CCCC5)CSc5ccccc5)c(S(=O)(=O)C(F)(F)F)c4)cc3)CC2)=C(C23CC(C(F)F)(C2)C3)C1 [Example 100, (R)-4-(4-((2-(3-(difluoromethyl)bicyclo[1.1.1]pentan-1-yl)-4,4-dimethylcyclohex-1-en-1-yl)methyl)piperazin-1-yl)-N-((4-((1-(phenylthio)-4-(pyrrolidin-1-yl)butan-2-yl)amino)-3-((trifluoromethyl)sulfonyl)phenyl)sulfonyl)benzamide]",≥ 7.00,> 8.00,> 8.00,
"COC1CCN(CC[C@H](CSc2ccccc2)Nc2ccc(S(=O)(=O)NC(=O)c3ccc(N4CCN(CC5=C(C67CC(C(F)F)(C6)C7)CC(C)(C)CC5)CC4)cc3)cc2S(=O)(=O)C(F)(F)F)CC1 [Example 99, (R)-4-(4-((2-(3-(difluoromethyl)bicyclo[1.1.1]pentan-1-yl)-4,4-dimethylcyclohex-1-en-1-yl)methyl)piperazin-1-yl)-N-((4-((4-(4-methoxypiperidin-1-yl)-1-(phenylthio)butan-2-yl)amino)-3-((trifluoromethyl)sulfonyl)phenyl)sulfonyl)benzamide]",≥ 7.00,> 8.00,> 8.00,
"CN1CCN(CC[C@H](CSc2ccccc2)Nc2ccc(S(=O)(=O)NC(=O)c3ccc(N4CCN(CC5=C(C67CC(C(F)F)(C6)C7)CC(C)(C)CC5)CC4)cc3)cc2S(=O)(=O)C(F)(F)F)CC1 [Example 98, (R)-4-(4-((2-(3-(difluoromethyl)bicyclo[1.1.1]pentan-1-yl)-4,4-dimethylcyclohex-1-en-1-yl)methyl)piperazin-1-yl)-N-((4-((4-(4-methylpiperazin-1-yl)-1-(phenylthio)butan-2-yl)amino)-3-((trifluoromethyl)sulfonyl)phenyl)sulfonyl)benzamide]",6.00 to 7.00,> 8.00,> 8.00,
COC1(C)CCN(CC[C@H](CSc2ccccc2)Nc2ccc(S(=O)(=O)NC(=O)c3ccc(N4CCN(CC5=C(C67CC(C(F)F)(C6)C7)CC(C)(C)CC5)CC4)cc3)cc2S(=O)(=O)C(F)(F)F)CC1 [Example 101],≥ 7.00,,,
CC1(C)CCC(CN2CCN(c3ccc(C(=O)NS(=O)(=O)c4ccc(N[C@H](CCN5CCO[C@H](CO)C5)CSc5ccccc5)c(S(=O)(=O)C(F)(F)F)c4)cc3)CC2)=C(C23CC(C(F)F)(C2)C3)C1 [Example 102],≥ 7.00,,,
"COC(=O)C1(C)CCN(CC[C@H](CSc2ccccc2)Nc2ccc(S(=O)(=O)NC(=O)c3ccc(N4CCN(CC5=C(C67CC(C(F)F)(C6)C7)CC(C)(C)CC5)CC4)cc3)cc2S(=O)(=O)C(F)(F)F)CC1 [Example 104, (R)-Methyl 1-(3-((4-(N-(4-(4-((2-(3-(difluoromethyl)bicyclo[1.1.1]pentan-1-yl)-4,4-dimethylcyclohex-1-en-1-yl)methyl)piperazin-1-yl)benzoyl)sulfamoyl)-2-((trifluoromethyl)sulfonyl)phenyl)amino)-4-(phenylthio)butyl)-4-methylpiperidine-4-carboxylate]",≥ 7.00,> 8.00,> 8.00,
"CC1(C)CCC(CN2CCN(c3ccc(C(=O)NS(=O)(=O)c4ccc(NCC5CCOCC5)c([N+](=O)[O-])c4)c(Oc4cnc5[nH]ccc5c4)c3)CC2)=C(c2ccc(Cl)cc2)C1 [ABT-199, venetoclax]",,,,time to maximum plasma concentration [1]: 5 to 8 h
"CC1(C)CCC(c2ccc(Cl)cc2)=C(CN2CCN(c3ccc(C(=O)NS(=O)(=O)c4ccc(N[C@H](CCN5CCOCC5)CSc5ccccc5)c(S(=O)(=O)C(F)(F)F)c4)cc3)CC2)C1 [ABT-263, Navitoclax, reference compound]",≥ 7.00,,,side effect limiting dosage [2]: occurrence of thrombocytopenia

# The next lines start with results.
pIC50 (NCI-H146 cells),Structure (SMILES),pIC50 (Bcl-XL),pIC50 (Bcl-2),also measured
≥ 7.00,"CC(C)N1CCN(CC[C@H](CSc2ccccc2)Nc2ccc(S(=O)(=O)NC(=O)c3ccc(N4CCN(CC5=C(C67CC(C(F)F)(C6)C7)CC(C)(C)CC5)CC4)cc3)cc2S(=O)(=O)C(F)(F)F)CC1 [Example 107, (R)-4-(4-((2-(3-(difluoromethyl)bicyclo[1.1.1]pentan-1-yl)-4,4-dimethylcyclohex-1-en-1-yl)methyl)piperazin-1-yl)-N-((4-((4-(4-isopropylpiperazin-1-yl)-1-(phenylthio)butan-2-yl)amino)-3-((trifluoromethyl)sulfonyl)phenyl)sulfonyl)benzamide]",,,
≥ 7.00,"CCC12CC(C3=C(CN4CCN(c5ccc(C(=O)NS(=O)(=O)c6ccc(N[C@H](CCN7CCC(OC)CC7)CSc7ccccc7)c(S(=O)(=O)C(F)(F)F)c6)cc5)CC4)CCC(C)(C)C3)(C1)C2 [Example 108, (R)-4-(4-((2-(3-ethylbicyclo[1.1.1]pentan-1-yl)-4,4-dimethylcyclohex-1-en-1-yl)methyl)piperazin-1-yl)-N-((4-((4-(4-methoxypiperidin-1-yl)-1-(phenylthio)butan-2-yl)amino)-3-((triluoromethyl)sulfonyl)phenyl)sulfonyl)benzamide]",,,
6.00 to 7.00,CC(C)OC1CCN(CC[C@H](CSc2ccccc2)Nc2ccc(S(=O)(=O)NC(=O)c3ccc(N4CCN(CC5=C(C67CC(C(F)F)(C6)C7)CC(C)(C)CC5)CC4)cc3)cc2S(=O)(=O)C(F)(F)F)CC1 [Example 106],,,
6.00 to 7.00,CC1(C)CCC(CN2CCN(c3ccc(C(=O)NS(=O)(=O)c4ccc(N[C@H](CCN5CCO[C@@H](CO)C5)CSc5ccccc5)c(S(=O)(=O)C(F)(F)F)c4)cc3)CC2)=C(C23CC(C(F)F)(C2)C3)C1 [Example 103],,,
≥ 7.00,"CCOC1CCN(CC[C@H](CSc2ccccc2)Nc2ccc(S(=O)(=O)NC(=O)c3ccc(N4CCN(CC5=C(C67CC(C(F)F)(C6)C7)CC(C)(C)CC5)CC4)cc3)cc2S(=O)(=O)C(F)(F)F)CC1 [Example 105, (R)-4-(4-((2-(3-(difluoromethyl)bicyclo[1.1.1]pentan-1-yl)-4,4-dimethylcyclohex-1-en-1-yl)methyl)piperazin-1-yl)-N-((4-((4-(4-ethoxypiperidin-1-yl)-1-(phenylthio)butan-2-yl)amino)-((trifluoromethyl)sulfonyl)phenyl)sulfonyl)benzamide]",,,
